Source: a melting point compilation (Tetko et al.; mined from patent text by program, amines drawn as free bases though some values may be those of a salt)

| SMILES | melting point [°C] |
| --- | --- |
| COc1cc2c(c(Cl)c1Cl)SC(C1CCCC1)C2O (centres undefined) | 129 to 132 |
| CCOC(=O)C1=C(C)NC(C)=C(C(=O)OC(C)C)C1c1cccc([N+](=O)[O-])c1 (centres undefined) | 148 |
| O=C(NCc1ccccn1)Nc1cc(N2CC(CCc3ccccc3)OC2=O)ccn1 (centres undefined) | 194 to 195 |
| O=C(O)CP(=O)(O)CCCc1ccccc1 | 118 to 119 |
| Cc1cc(CCCCCOc2c(C)cc(-c3noc(C(F)(F)F)n3)cc2C)on1 | 41 to 42 |
| CC(=O)NC1(c2ccccc2)CCN(CCC(CN2C(=O)c3ccccc3C2=O)c2ccc(Cl)c(Cl)c2)CC1 (centres undefined) | 83 to 85 |
| COc1cc(C(=O)Oc2cc(Cl)c(Cl)cc2Cl)ccc1Cc1cn(C)c2ccc([N+](=O)[O-])cc12 | 134 to 136 |
| C[C@@H]1Cc2ccsc2[C@H](C)N1CCCCNS(=O)(=O)c1ccc(NS(C)(=O)=O)cc1 (relative stereo) | 134 to 136 |
| COC(=O)/C=C/c1ccc2nn(C)c(C)c2c1C(=O)OC | 133 to 135 |
| CCOC(=O)c1cc(/C=C/c2ccc(O)cc2)ccc1O | 269 to 271 |
| O=S(=O)(c1ccc(Cl)cc1)C1(c2cccnc2Cl)CCCCC1 | 129 to 131 |
| CNC(=S)C1=CC(CF)(CF)Oc2ccc(C(F)(F)C(F)(F)C(F)(F)F)cc21 | 125 to 126 |
| Cc1cc(=O)n2c3c(cc(C(O)(C(F)(F)F)C(F)(F)F)cc13)CC2 | 337 to 338 |
| CCc1nnc(-c2ccc(-c3ccccc3)nc2)n1-c1cccc(C(N)=O)c1C | 162 to 163 |
| Cc1csc2c(Cl)c(Cl)c(O)cc12 | 137 to 139 |
| Cc1ccc2nc(-c3ccc([N+](=O)[O-])cc3)cn2c1 | 237 to 239 |
| CCc1cc(C(F)(C(F)(F)F)C(F)(F)C(F)(F)F)cc(C)c1NC(=O)c1cccc(NC(=O)c2ccc(C#N)cc2C)c1OC (centres undefined) | 104 to 105 |
| NC(=O)Nc1cccc2c1C(=O)c1c-2n[nH]c1-c1ccsc1 | > 280 |
| Cc1nc2cc(OC3SCC(O)C(O)C3O)ccc2s1 (centres undefined) | 210 to 211 |
| CCCCc1nc2c(N)nc3ccccc3c2n1CCCC(C)=NOC | 157 to 159 |
| CCCCN(CCCC)CCCCCCOc1ccc([C@H]2c3ccc(OCc4ccccc4)cc3OC[C@H]2c2ccccc2)cc1 (racemic) | 72 to 73.5 |
| CCOC(=O)c1cn2c(n1)CN(C(=O)CCl)c1ccccc1-2 | 178 to 183 |
| COC(=O)CCSc1ccc(C=C(C)c2ccc3c(c2)C(C)(C)CCC3(C)C)cc1 | 90 to 92 |

| SMILES | melting point [°C] |
| --- | --- |
| C=CCCn1cc([N+](=O)[O-])nc1Br | 28 to 30 |
| CC(=NO)C(=O)c1ccc(NS(C)(=O)=O)c(Sc2ccc(F)cc2F)c1 | 140 to 143 |
| CC(C)N(C[C@H](O)[C@H](Cc1ccccc1)NC(=O)c1ccccc1NC(=O)OCc1ccccn1)NC(=O)OC(C)(C)C | 155 to 157 |
| N#Cc1ccc(-c2ccc(OC(F)(F)F)c(CNC3CCN(C(=O)CO)CC3c3ccccc3)c2)c(F)c1 (centres undefined) | 132 to 134 |
| CCCCOc1ccc(Cl)cc1C(=O)NCc1ccc(CC(=O)O)cc1 | 172 |
| CC(N)C(=O)Nc1cc(OCC(F)(F)F)ccc1-c1cccnc1 (centres undefined) | 135 to 140 |
| FC(F)c1nc2ccccc2n1-c1nc(Nc2ccccc2)nc(N2CCOCC2)n1 | 171 to 174 |
| O=[N+]([O-])c1cc(-c2ccoc2)ccc1Nc1cccc(-n2cccc2)c1 | 129 to 131 |
| O=C(Cc1ccccc1)N1CCC2(c3cccc(O)c3)CCCC2C1 (centres undefined) | 135 to 137 |
| CC(C)c1cc(-c2ccccc2)nc(-c2ccc(F)cc2)c1CO | 172 to 174 |
| NS(=O)(=O)c1ccc(SCCO)s1 | 46.5 to 47.5 |
| CN(C)c1nc(N(C)C)nc(N(C)Cc2ccccc2O)n1 | 169 to 171 |
| N#Cc1cccc(CSc2nnc(-c3ccnc(NC(=O)CCc4ccccc4)c3)o2)c1 | 153 to 154 |
| O=C(O)COc1c(-c2cccc(C(F)(F)F)c2)cc(C(=O)NCCCCCCOCc2ccc(OCc3ccccc3)cc2)cc1-c1cccc(C(F)(F)F)c1 | 127 to 130 |
| COc1cc(C=O)ccc1OCCBr | 61 to 64 |
| CN(C)c1cc2c(=O)n(NS(C)(=O)=O)c(=O)[nH]c2cc1C(F)(F)F | 254 to 272 |
| CS(=O)(=O)OCCc1cc([N+](=O)[O-])ccc1COS(C)(=O)=O | 88 to 89 |
| CCNc1ccc(C(=O)CBr)cc1S(N)(=O)=O | 156 to 157 |
| CC(=O)Nc1ccc(OCC(O)CN2CCC(N3CCCNC3=O)CC2)cc1 (centres undefined) | 218 to 221 |
| O=C1C[C@H]2CN(C(=O)c3ccc(NC(=O)c4ccccc4-c4ccccc4)cc3)c3ccccc3C(=O)N2C1 | 159 to 169 |
| CCOc1ccc(-c2ccc(Cl)nn2)c(OCC2CO2)c1 (centres undefined) | 93 to 94 |
| CC(=O)Oc1c(C)c(C)c2c(c1C)C(=O)CC(O)(COc1ccc([N+](=O)[O-])cc1)O2 (centres undefined) | 204 to 207 |
| O=C(O)CCc1oc(-n2ncc3ccccc32)nc1-c1ccc(Cl)cc1 | 204 to 205 |

| SMILES | melting point [°C] |
| --- | --- |
| COc1cc(-c2ccc(O)c(C3(C)CCCCC3)c2)cc(CC2SC(N(C)C)=NC2=O)c1OC (centres undefined) | 187 to 188 |
| Cn1c(C#N)ccc1CC(=O)O | 125 to 126 |
| Cc1cccc(N2CCOC2=O)c1CNc1cccn2c(C=O)c(C)nc12 | 196 to 197 |
| CC(=O)Oc1cc(COC(=O)c2ccccc2)cnc1C | 57 |
| Cc1cccc2c1NC(C)c1nnnn1-2 (centres undefined) | 159 to 161 |
| N#CSCCNc1c(Cl)cccc1[N+](=O)[O-] | 92 to 94 |
| c1ccc(C(c2ccccc2)N2CCCC2)cc1 | 69 to 72 |
| Cc1nc(N)nc(O)c1I | 212 |
| N#Cc1cc2c(cc1F)OCC21C(=O)N(Cc2ncccc2C(F)(F)F)c2ccccc21 (centres undefined) | 209 to 211 |
| CC(C)N[C@@H](Cc1ccccc1)C(=O)N1CCN(C(c2ccc(F)cc2)c2ccc(F)cc2)CC1 | 45 to 58 |
| COc1ccc(-n2c(=O)c(C(=O)O)nc3c(Cl)cccc32)cc1 | 198 to 200 |
| CC(C)(C)c1cc(-c2nnc(N)o2)cc(C(C)(C)C)c1O | 244 to 245 |
| NC1=C(C(=O)c2ccc(Cl)cc2Cl)OC2N=C(O)C=CC12 (centres undefined) | > 305 |
| COc1ccc2[nH]ccc2c1Cl | 112 to 113 |
| COc1cc2c3ccc(OC)c(OC)c3n(C(=O)c3ccccc3)c2cc1OC | 184 to 185 |
| Cc1ccc(S(=O)(=O)N2[C@H](CCCCc3nnnn3C)CC[C@@H]2c2ccc(F)cc2)cc1 (racemic) | 77 |
| COc1ccc(CCNC(=O)C(=O)NCc2ccc(NC(C)=O)cc2)cc1OC1CCCC1 | 235 to 236 |
| CN(C)C(=O)/C=C/c1ccc(C(=O)c2c(-c3ccc(O)cc3)sc3cc(O)ccc23)cc1 | 208 to 211 |
| CC(C)(C)OC(=O)N(Cc1ccc(C(=O)O)cc1)c1ccc(C2CCCCC2)cc1 | 192 to 194 |
| COC(=O)[C@@H]1CCCN1C(=O)c1cccc(O)c1[N+](=O)[O-] | 114 to 116 |
| CCNC(=O)c1c(Cl)cccc1[Si](C)(C)CBr | 98 to 99 |
| Cc1c2cc(C(=O)O)[nH]c2cc2c1sc1ccccc12 | 271 to 272 |
| Cc1ccc(CN2CCN(C3=NC4(C=CC(=O)C(Cl)=C4)C(c4ccccc4)=C3)CC2)cc1 (centres undefined) | 161 |
